From patent US20230093861A1, “RAPAMYCIN ANALOGS AS MTOR INHIBITORS” (Revolution Medicines, Inc., priority 2017, published 2023)
Read-outs that look alike come from different tables or passages of the source.

Assays:
P-P70S6K (T389) = test: Cell based AlphaLISA assay, inhibition of P-P70S6K (T389) (mTORC1 substrate phosphorylation) in MDA-MB-468 cells; details: Homo sapiens, 4 h, AlphaLISA, two to four hours at 37° C., read-out: pIC50 for Inhibition of mTORC1 and mTORC2 Substrate Phosphorylation, P-P70S6K-(T389) (converted)
Outline: (§1)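 Cells are exposed to inhibitor, then the assay buffer is taken off and kit lysis buffer added. Lysates undergo AlphaLISA SureFire Ultra detection in duplicate.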

P-4E-BP1 (T37/46) = test: Cell based AlphaLISA assay, inhibition of P-4E-BP1 (T37/46) (mTORC1 substrate phosphorylation) in MDA-MB-468 cells; details: Homo sapiens, AlphaLISA, two to four hours at 37° C., read-out: pIC50 for Inhibition of mTORC1 and mTORC2 Substrate Phosphorylation, P-4E-BP1-(T37/46) (converted)
Outline: as §1

P-Akt (S473) = test: Cell based AlphaLISA assay, inhibition of P-Akt (S473) (mTORC2 substrate phosphorylation) in MDA-MB-468 cells; details: Homo sapiens, AlphaLISA, two to four hours at 37° C., read-out: pIC50 for Inhibition of mTORC1 and mTORC2 Substrate Phosphorylation, p-AKT 1/2/3 -(S473) (converted)
Outline: as §1

In the case of CO[C@H]1C[C@@H]2CC[C@@H](C)[C@@](O)(O2)C(=O)C(=O)N2CCCC[C@H]2C(=O)O[C@H]([C@H](C)C[C@@H]2CC[C@H](n3cc(COC(=O)NCCOCCOCCOCCC(=O)NCCOCCOCCOCCC(=O)NCCCCn4nc(-c5ccc6oc(N)nc6c5)c5c(N)ncnc54)nn3)[C@H](OC)C2)C/C(=N/OCc2ccccc2)[C@H](C)/C=C(\C)[C@@H](O)[C@@H](OC)C(=O)[C@H](C)C[C@H](C)/C=C/C=C/C=C/1C [Example 156], the IC50 (P-P70S6K (T389)) was greater than 1 µM, the IC50 (P-4E-BP1 (T37/46); MDA-MB-468, 4 h) was greater than 1 µM and the IC50 (P-Akt (S473); MDA-MB-468, 4 h) was greater than 1 µM.

CO[C@@H]1C[C@H](C[C@@H](C)[C@@H]2CC(=O)[C@H](C)/C=C(\C)[C@@H](O)[C@@H](OC)C(=O)[C@H](C)C[C@H](C)/C=C/C=C/C=C(\C)[C@@H](c3ccco3)C[C@@H]3CC[C@@H](C)[C@@](O)(O3)C(=O)C(=O)N3CCCC[C@H]3C(=O)O2)CC[C@H]1OCCCCc1cn(CCOCCOCCOCCOCCOCCOCCOCCOCCC(=O)NCCCCn2nc(-c3cc4cc(O)ccc4[nH]3)c3c(N)ncnc32)nn1 [Example 76] gave an IC50 (P-P70S6K (T389)) of less than 0.001 µM, an IC50 (P-4E-BP1 (T37/46); MDA-MB-468, 4 h) of less than 0.00316 µM and an IC50 (P-Akt (S473); MDA-MB-468, 4 h) of 0.00316 to 0.0316 µM.

Compound CO[C@H]1C[C@@H]2CC[C@@H](C)[C@@](O)(O2)C(=O)C(=O)N2CCCC[C@H]2C(=O)O[C@H]([C@H](C)C[C@@H]2CC[C@H](n3cc(CCCC(=O)NCCOCCOCCOCCC(=O)NCCOCCOCCC(=O)NCCCCn4nc(-c5cc6cc(O)ccc6[nH]5)c5c(N)ncnc54)nn3)[C@H](OC)C2)C[C@@H](OC)[C@H](C)/C=C(\C)[C@@H](O)[C@@H](OC)C(=O)[C@H](C)C[C@H](C)/C=C/C=C/C=C/1C [Example 163] has an IC50 (P-P70S6K (T389)) of 0.01 to 1 µM, an IC50 (P-4E-BP1 (T37/46); MDA-MB-468, 4 h) greater than 1 µM and an IC50 (P-Akt (S473); MDA-MB-468, 4 h) greater than 1 µM.

Compound CO/N=C1/C[C@@H]([C@H](C)C[C@@H]2CC[C@H](n3cc(CCCC(=O)NCCOCCOCCOCCC(=O)NCCOCCOCCC(=O)NCCCCn4nc(-c5cc6cc(O)ccc6[nH]5)c5c(N)ncnc54)nn3)[C@H](OC)C2)OC(=O)[C@@H]2CCCCN2C(=O)C(=O)[C@]2(O)O[C@@H](CC[C@H]2C)C[C@H](OC)/C(C)=C/C=C/C=C/[C@@H](C)C[C@@H](C)C(=O)[C@H](OC)[C@H](O)/C(C)=C/[C@H]1C [Example 170] has an IC50 (P-P70S6K (T389)) of 0.01 to 1 µM, an IC50 (P-4E-BP1 (T37/46); MDA-MB-468, 4 h) greater than 1 µM and an IC50 (P-Akt (S473); MDA-MB-468, 4 h) greater than 1 µM.

CO[C@H]1C[C@@H]2CC[C@@H](C)[C@@](O)(O2)C(=O)C(=O)N2CCCC[C@H]2C(=O)O[C@H]([C@H](C)C[C@@H]2CC[C@@H](OCCOCc3cn(CCOCCOCCOCCOCCOCCOCCC(=O)N4CC(Cn5nc(-c6ccc7oc(N)nc7c6)c6c(N)ncnc65)C4)nn3)[C@H](OC)C2)CC(=O)[C@H](C)/C=C(\C)[C@@H](O)[C@@H](OC)C(=O)[C@H](C)C[C@H](C)/C=C/C=C/C=C/1C [Example 57] was tested, and the IC50 (P-P70S6K (T389)) was less than 0.001 µM, the IC50 (P-4E-BP1 (T37/46); MDA-MB-468, 4 h) was less than 0.00316 µM and the IC50 (P-Akt (S473); MDA-MB-468, 4 h) was 0.00316 to 0.0316 µM.

For CO[C@H]1C[C@@H]2CC[C@@H](C)[C@@](O)(O2)C(=O)C(=O)N2CCCC[C@H]2C(=O)O[C@H]([C@H](C)C[C@@H]2CC[C@@H](OCCC(C)(C)Cc3cn(CCOCCOCCOCCOCCOCCOCCOCCOCCC(=O)NCCCCn4nc(-c5ccc6oc(N)nc6c5)c5c(N)ncnc54)nn3)[C@H](OC)C2)CC(=O)[C@H](C)/C=C(\C)[C@@H](O)[C@@H](OC)C(=O)[C@H](C)C[C@H](C)/C=C/C=C/C=C/1C [Example 58], the IC50 (P-P70S6K (T389)) was less than 0.001 µM, the IC50 (P-4E-BP1 (T37/46); MDA-MB-468, 4 h) was less than 0.00316 µM and the IC50 (P-Akt (S473); MDA-MB-468, 4 h) was less than 0.00316 µM.

CO[C@H]1C[C@@H]2CC[C@@H](C)[C@@](O)(O2)C(=O)C(=O)N2CCCC[C@H]2C(=O)O[C@H]([C@H](C)C[C@@H]2CC[C@H](n3cc(COC(=O)NCCOCCOCCOCCOCCC(=O)NCCOCCOCCOCCOCCC(=O)NCCCCn4nc(-c5ccc6oc(N)nc6c5)c5c(N)ncnc54)nn3)[C@H](OC)C2)CC(=O)[C@H](C)/C=C(\C)[C@@H](O)[C@@H](OC)C(=O)[C@H](C)C[C@H](C)/C=C/C=C/C=C/1C [Example 125] was tested, and the IC50 (P-P70S6K (T389)) was 0.001 to 0.01 µM, the IC50 (P-4E-BP1 (T37/46); MDA-MB-468, 4 h) was 0.00316 to 0.0316 µM and the IC50 (P-Akt (S473); MDA-MB-468, 4 h) was 0.00316 to 0.0316 µM.

CO[C@H]1C[C@@H]2CC[C@@H](C)[C@@](O)(O2)C(=O)C(=O)N2CCCC[C@H]2C(=O)O[C@H]([C@H](C)C[C@@H]2CC[C@@H](OCCCCc3cn(CCOCCOCCOCCC(=O)NCCOCCOCCOCCC(=O)NCCCCn4nc(-c5cc6cc(O)ccc6[nH]5)c5c(N)ncnc54)nn3)[C@H](OC)C2)CC(=O)[C@H](C)/C=C(\C)[C@@H](O)[C@@H](OC)C(=O)[C@H](C)C[C@H](C)/C=C/C=C/C=C/1C [Example 199] gave an IC50 (P-P70S6K (T389)) of less than 0.001 µM, an IC50 (P-4E-BP1 (T37/46); MDA-MB-468, 4 h) of less than 0.00316 µM and an IC50 (P-Akt (S473); MDA-MB-468, 4 h) of 0.0316 to 1 µM.

Compound CO[C@H]1C[C@@H]2CC[C@@H](C)[C@@](O)(O2)C(=O)C(=O)N2CCCC[C@H]2C(=O)O[C@H]([C@H](C)C[C@@H]2CC[C@@H](OCCCCc3cn(CCOCCOCCOCCOCCOCCOCCC(=O)N(C)CCCCn4nc(-c5ccc6oc(N)nc6c5)c5c(N)ncnc54)nn3)[C@H](OC)C2)CC(=O)[C@H](C)/C=C(\C)[C@@H](O)[C@@H](OC)C(=O)[C@H](C)C[C@H](C)/C=C/C=C/C=C/1C [Example 84] has an IC50 (P-P70S6K (T389)) of less than 0.001 µM, an IC50 (P-4E-BP1 (T37/46); MDA-MB-468, 4 h) of less than 0.00316 µM and an IC50 (P-Akt (S473); MDA-MB-468, 4 h) of 0.00316 to 0.0316 µM.

Work on CO[C@H]1C[C@@H]2CC[C@@H](C)[C@@](O)(O2)C(=O)C(=O)N2CCCC[C@H]2C(=O)O[C@H]([C@H](C)C[C@@H]2CC[C@@H](OCCCCc3cn(CCOCCOCCOCCOCCOCCOCCC(=O)NCCCCn4nc(-c5ccc6oc(N)nc6c5)c5c(N)ncnc54)nn3)[C@H](OC)C2)CC(=O)[C@H](C)/C=C(\C)[C@@H](O)[C@@H](OC)C(=O)[C@H](C)C[C@H](C)/C=C/C=C/C=C/1C [Example 3] yielded an IC50 (P-P70S6K (T389)) of less than 0.001 µM, an IC50 (P-4E-BP1 (T37/46); 4 h) of less than 0.00316 µM and an IC50 (P-Akt (S473); 4 h) of 0.00316 to 0.0316 µM.

CO[C@H]1C[C@@H]2CC[C@@H](C)[C@@](O)(O2)C(=O)C(=O)N2CCCC[C@H]2C(=O)O[C@H]([C@H](C)C[C@@H]2CC[C@@H](O)[C@H](OC)C2)C[C@@H](O)[C@H](C)/C=C(\C)[C@@H](O)[C@@H](OC)C(=NOCc2cn(CCOCCOCCOCCOCCOCCOCCOCCOCCC(=O)N3CCc4cc(Cn5nc(-c6ccc7oc(N)nc7c6)c6c(N)ncnc65)ccc4C3)nn2)[C@H](C)C[C@H](C)/C=C/C=C/C=C/1C [Example 87] gave an IC50 (P-P70S6K (T389)) of less than 0.001 µM, an IC50 (P-4E-BP1 (T37/46); MDA-MB-468, 4 h) of 0.00316 to 0.0316 µM and an IC50 (P-Akt (S473); MDA-MB-468, 4 h) greater than 1 µM.

For CO[C@H]1C[C@@H]2CC[C@@H](C)[C@@](O)(O2)C(=O)C(=O)N2CCCC[C@H]2C(=O)O[C@H]([C@H](C)C[C@@H]2CC[C@H](n3cc(-c4cnc(N5CCN(c6ncc(C(=O)NCCOCCOCCOCCOCCC(=O)NCCCCn7nc(-c8ccc9oc(N)nc9c8)c8c(N)ncnc87)cn6)CC5)nc4)nn3)[C@H](OC)C2)CC(=O)[C@H](C)/C=C(\C)[C@@H](O)[C@@H](OC)C(=O)[C@H](C)C[C@H](C)/C=C/C=C/C=C/1C [Example 115], the IC50 (P-P70S6K (T389)) was less than 0.001 µM, the IC50 (P-4E-BP1 (T37/46); MDA-MB-468, 4 h) was less than 0.00316 µM and the IC50 (P-Akt (S473); MDA-MB-468, 4 h) was less than 0.00316 µM.

Work on CO[C@H]1C[C@@H]2CC[C@@H](C)[C@@](O)(O2)C(=O)C(=O)N2CCCC[C@H]2C(=O)O[C@H]([C@H](C)C[C@@H]2CC[C@H](n3cc(CCCC(=O)NCCOCCOCCOCCC(=O)NCCOCCOCCOCCC(=O)NCCCCn4nc(-c5ccc6oc(N)nc6c5)c5c(N)ncnc54)nn3)[C@H](OC)C2)C/C(=N/OCc2ccccc2)[C@H](C)/C=C(\C)[C@@H](O)[C@@H](OC)C(=O)[C@H](C)C[C@H](C)/C=C/C=C/C=C/1C [Example 174] yielded an IC50 (P-P70S6K (T389)) of 0.01 to 1 µM, an IC50 (P-4E-BP1 (T37/46); MDA-MB-468, 4 h) greater than 1 µM and an IC50 (P-Akt (S473); MDA-MB-468, 4 h) greater than 1 µM.
